Experiments:
Assay in all cases: Eurofins Kinase Profiler panel
Type in all cases: biochemical
FGFR1 = target: T1, FGFR1 (Homo sapiens, UniProt P11362); conditions: read-out: % inhibition (1μM), DMSO control=100%, lower=stronger
T1 construct: purchased Eurofins Pharma Discovery Services UK Limited (Kinase Profiler screening platform)

FAK = target: T2, FAK (Homo sapiens, UniProt Q05397); conditions: read-out: % inhibition (1μM), DMSO control=100%, lower=stronger
T2 construct: Eurofins Pharma Discovery Services UK Limited (Kinase Profiler service)

CLK2 = target: T3, CLK2 (Homo sapiens, UniProt P49760)
T3 construct: Eurofins Pharma Discovery Services UK Limited (Kinase Profiler service)
Description: (§1) The assay protocol guides are commercially available from ChemPartner.

ROCK-II = target: T4, ROCK-II (Homo sapiens, UniProt O75116); conditions: read-out: % inhibition (1μM), DMSO control=100%, lower=stronger
T4 construct: purchased Eurofins KinaseProfiler (Eurofins Pharma Discovery Services UK, Dundee); JAK3 also ChemPartner
Description: as §1

PKG1α = target: T5, PKG1α (Homo sapiens, UniProt Q13976)
T5 construct: Eurofins Pharma Discovery Services UK Limited (Kinase Profiler service)
Description: as §1

CaMKK2 = target: T6, CaMKK2 (Homo sapiens, UniProt Q96RR4); conditions: read-out: % inhibition (1μM), DMSO control=100%, lower=stronger
T6 construct: purchased Eurofins KinaseProfiler (Eurofins Pharma Discovery Services UK, Dundee); JAK3 also ChemPartner
Description: as §1

TrkC = target: T7, TrkC (Homo sapiens, UniProt Q16288); conditions: read-out: % inhibition (1μM), DMSO control=100%, lower=stronger
T7 construct: purchased Eurofins Pharma Discovery Services UK Limited (Kinase Profiler screening platform)
Description: as §1

Src = target: T8, Src (Homo sapiens, UniProt P12931); conditions: read-out: % inhibition (1μM), DMSO control=100%, lower=stronger
T8 construct: purchased Eurofins KinaseProfiler (Eurofins Pharma Discovery Services UK, Dundee); JAK3 also ChemPartner
Description: as §1

CaMKI = target: T9, CaMKI (Homo sapiens, UniProt Q14012); conditions: read-out: % inhibition (1μM), DMSO control=100%, lower=stronger
T9 construct: purchased Eurofins KinaseProfiler (Eurofins Pharma Discovery Services UK, Dundee); JAK3 also ChemPartner
Description: as §1

SAPK2a = target: T10, SAPK2a (Homo sapiens, UniProt Q16539); conditions: read-out: % inhibition (1μM), DMSO control=100%, lower=stronger
T10 construct: purchased Eurofins KinaseProfiler (Eurofins Pharma Discovery Services UK, Dundee); JAK3 also ChemPartner
Description: as §1

CDK9 = target: T11, CDK9 (Homo sapiens, UniProt P50750); conditions: read-out: % inhibition (1μM), DMSO control=100%, lower=stronger
T11 construct: purchased Eurofins KinaseProfiler (Eurofins Pharma Discovery Services UK, Dundee); JAK3 also ChemPartner
Description: as §1

PKA = target: T12, PKA (Homo sapiens, UniProt P17612); conditions: read-out: % inhibition (1μM), DMSO control=100%, lower=stronger
T12 construct: purchased Eurofins KinaseProfiler (Eurofins Pharma Discovery Services UK, Dundee); JAK3 also ChemPartner
Description: as §1

TrkB = target: T13, TrkB (Homo sapiens, UniProt Q16620); conditions: read-out: % inhibition (1μM), DMSO control=100%, lower=stronger
T13 construct: purchased Eurofins Pharma Discovery Services UK Limited (Kinase Profiler screening platform)
Description: as §1

SAPK4 = target: T14, SAPK4 (Homo sapiens, UniProt O15264); conditions: read-out: % inhibition (1μM), DMSO control=100%, lower=stronger
T14 construct: purchased Eurofins KinaseProfiler (Eurofins Pharma Discovery Services UK, Dundee); JAK3 also ChemPartner
Description: as §1

PAK4 = target: T15, PAK4 (Homo sapiens, UniProt O96013); conditions: read-out: % inhibition (1μM), DMSO control=100%, lower=stronger
T15 construct: purchased Eurofins Pharma Discovery Services UK Limited (Kinase Profiler screening platform)
Description: as §1

GSK3α = target: T16, GSK3α (Homo sapiens, UniProt P49840); conditions: read-out: % inhibition (1μM), DMSO control=100%, lower=stronger
T16 construct: purchased Eurofins KinaseProfiler (Eurofins Pharma Discovery Services UK, Dundee); JAK3 also ChemPartner
Description: as §1

ROCK-I = target: T17, ROCK-I (Homo sapiens, UniProt Q13464); conditions: read-out: % inhibition (1μM), DMSO control=100%, lower=stronger
T17 construct: purchased Eurofins KinaseProfiler (Eurofins Pharma Discovery Services UK, Dundee); JAK3 also ChemPartner
Description: as §1

Pim-1 = target: T18, Pim-1 (Homo sapiens, UniProt P11309); conditions: read-out: % inhibition (1μM), DMSO control=100%, lower=stronger
T18 construct: purchased Eurofins Pharma Discovery Services UK Limited (Kinase Profiler screening platform)
Description: as §1

CDK7 = target: T19, CDK7 (Homo sapiens, UniProt P50613); conditions: read-out: % inhibition (1μM), DMSO control=100%, lower=stronger
T19 construct: purchased Eurofins KinaseProfiler (Eurofins Pharma Discovery Services UK, Dundee); JAK3 also ChemPartner
Description: as §1

PRK2 = target: T20, PRK2 (Homo sapiens, UniProt Q16513); conditions: read-out: % inhibition (1μM), DMSO control=100%, lower=stronger
T20 construct: purchased Eurofins KinaseProfiler (Eurofins Pharma Discovery Services UK, Dundee); JAK3 also ChemPartner
Description: as §1

[1] = read-out: % inhibition (1μM), 1 µM, DMSO control=100%, lower=stronger

T5 sequence (Q13976 whole entry): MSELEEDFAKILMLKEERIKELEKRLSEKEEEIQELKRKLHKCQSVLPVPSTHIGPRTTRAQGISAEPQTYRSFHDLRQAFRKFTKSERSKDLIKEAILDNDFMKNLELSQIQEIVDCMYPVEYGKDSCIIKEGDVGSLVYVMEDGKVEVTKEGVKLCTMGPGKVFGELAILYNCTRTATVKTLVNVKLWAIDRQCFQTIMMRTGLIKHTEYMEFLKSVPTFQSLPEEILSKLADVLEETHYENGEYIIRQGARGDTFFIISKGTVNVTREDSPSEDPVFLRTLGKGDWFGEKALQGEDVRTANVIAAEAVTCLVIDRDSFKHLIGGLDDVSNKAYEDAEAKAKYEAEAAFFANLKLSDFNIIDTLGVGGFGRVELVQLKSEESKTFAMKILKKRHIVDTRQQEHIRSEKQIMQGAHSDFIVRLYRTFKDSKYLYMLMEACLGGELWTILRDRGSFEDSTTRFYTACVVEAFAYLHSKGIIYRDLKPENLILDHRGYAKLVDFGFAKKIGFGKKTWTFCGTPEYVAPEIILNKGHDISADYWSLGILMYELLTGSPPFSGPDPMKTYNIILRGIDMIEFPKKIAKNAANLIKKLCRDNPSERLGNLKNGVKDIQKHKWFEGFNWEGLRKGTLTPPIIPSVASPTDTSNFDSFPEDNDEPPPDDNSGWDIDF
T3 sequence (P49760 whole entry): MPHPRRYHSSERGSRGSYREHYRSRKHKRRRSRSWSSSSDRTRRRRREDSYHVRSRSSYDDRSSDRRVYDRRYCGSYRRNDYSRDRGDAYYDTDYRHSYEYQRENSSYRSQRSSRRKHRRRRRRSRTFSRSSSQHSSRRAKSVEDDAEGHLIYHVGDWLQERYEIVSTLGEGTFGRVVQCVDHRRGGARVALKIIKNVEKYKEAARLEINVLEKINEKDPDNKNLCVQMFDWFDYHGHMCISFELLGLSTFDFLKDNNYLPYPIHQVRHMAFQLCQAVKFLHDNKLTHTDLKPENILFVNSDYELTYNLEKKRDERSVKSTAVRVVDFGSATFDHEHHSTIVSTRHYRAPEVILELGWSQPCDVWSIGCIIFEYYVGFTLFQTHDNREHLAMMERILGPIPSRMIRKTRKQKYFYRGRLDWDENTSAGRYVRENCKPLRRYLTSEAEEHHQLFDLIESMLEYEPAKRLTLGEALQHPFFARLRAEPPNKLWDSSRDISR
T2 sequence (Q05397 whole entry): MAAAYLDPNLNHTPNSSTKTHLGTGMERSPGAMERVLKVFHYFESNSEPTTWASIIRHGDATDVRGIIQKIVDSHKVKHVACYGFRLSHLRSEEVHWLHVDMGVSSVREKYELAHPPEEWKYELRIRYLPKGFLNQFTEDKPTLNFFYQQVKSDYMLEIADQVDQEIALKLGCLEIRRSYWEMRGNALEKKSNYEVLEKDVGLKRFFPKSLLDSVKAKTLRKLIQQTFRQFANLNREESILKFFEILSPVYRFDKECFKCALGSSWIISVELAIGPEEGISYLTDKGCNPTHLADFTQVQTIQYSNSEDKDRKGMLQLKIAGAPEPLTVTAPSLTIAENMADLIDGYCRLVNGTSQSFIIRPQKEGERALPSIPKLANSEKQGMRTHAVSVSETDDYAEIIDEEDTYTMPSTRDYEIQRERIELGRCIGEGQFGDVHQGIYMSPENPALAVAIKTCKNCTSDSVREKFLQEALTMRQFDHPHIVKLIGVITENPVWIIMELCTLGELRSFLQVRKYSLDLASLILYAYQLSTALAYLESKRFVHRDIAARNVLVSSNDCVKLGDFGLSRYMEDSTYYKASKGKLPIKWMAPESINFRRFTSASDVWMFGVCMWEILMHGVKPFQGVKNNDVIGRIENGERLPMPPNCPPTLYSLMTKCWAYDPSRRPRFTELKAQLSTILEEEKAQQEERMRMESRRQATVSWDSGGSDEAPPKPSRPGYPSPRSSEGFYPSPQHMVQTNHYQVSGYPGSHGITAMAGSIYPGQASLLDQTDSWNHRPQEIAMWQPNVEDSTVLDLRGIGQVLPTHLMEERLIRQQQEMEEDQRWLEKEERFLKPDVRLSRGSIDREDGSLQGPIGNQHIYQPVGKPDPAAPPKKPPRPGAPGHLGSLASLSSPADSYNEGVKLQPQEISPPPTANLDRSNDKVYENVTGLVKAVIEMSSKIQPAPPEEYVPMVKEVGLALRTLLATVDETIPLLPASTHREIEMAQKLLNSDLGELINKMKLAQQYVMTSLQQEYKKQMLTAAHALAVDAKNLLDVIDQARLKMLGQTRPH
T13 sequence (Q16620 32-822): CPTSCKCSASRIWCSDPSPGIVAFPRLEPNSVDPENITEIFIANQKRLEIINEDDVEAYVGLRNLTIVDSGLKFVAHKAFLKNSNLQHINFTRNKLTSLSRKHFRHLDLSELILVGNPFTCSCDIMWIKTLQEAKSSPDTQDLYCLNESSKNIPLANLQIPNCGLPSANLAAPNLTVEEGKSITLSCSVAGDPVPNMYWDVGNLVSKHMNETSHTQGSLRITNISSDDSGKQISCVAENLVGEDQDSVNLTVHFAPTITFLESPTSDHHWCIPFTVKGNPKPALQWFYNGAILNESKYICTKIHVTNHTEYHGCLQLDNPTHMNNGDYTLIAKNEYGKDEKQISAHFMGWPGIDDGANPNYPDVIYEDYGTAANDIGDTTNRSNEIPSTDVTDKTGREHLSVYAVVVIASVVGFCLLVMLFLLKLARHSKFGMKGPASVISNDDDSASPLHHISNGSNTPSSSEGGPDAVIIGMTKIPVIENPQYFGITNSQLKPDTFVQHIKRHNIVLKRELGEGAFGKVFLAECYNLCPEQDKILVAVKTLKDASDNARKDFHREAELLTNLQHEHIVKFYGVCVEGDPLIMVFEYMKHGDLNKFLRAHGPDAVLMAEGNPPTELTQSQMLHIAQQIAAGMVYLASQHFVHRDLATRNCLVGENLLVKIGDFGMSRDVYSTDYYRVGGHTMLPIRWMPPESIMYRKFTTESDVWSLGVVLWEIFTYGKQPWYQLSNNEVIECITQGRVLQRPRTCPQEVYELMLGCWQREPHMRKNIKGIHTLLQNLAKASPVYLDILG
T19 sequence (P50613 whole entry): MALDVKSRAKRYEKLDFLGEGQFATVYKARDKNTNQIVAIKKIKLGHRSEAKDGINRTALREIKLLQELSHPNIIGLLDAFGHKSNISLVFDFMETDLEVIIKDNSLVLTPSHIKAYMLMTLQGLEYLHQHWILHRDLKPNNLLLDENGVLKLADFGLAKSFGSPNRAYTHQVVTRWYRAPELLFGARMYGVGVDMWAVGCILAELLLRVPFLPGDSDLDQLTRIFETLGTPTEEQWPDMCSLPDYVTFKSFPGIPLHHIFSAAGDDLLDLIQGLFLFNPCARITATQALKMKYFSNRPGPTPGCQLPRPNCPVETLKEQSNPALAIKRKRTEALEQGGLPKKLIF
T19 sequence (P51946 whole entry partner): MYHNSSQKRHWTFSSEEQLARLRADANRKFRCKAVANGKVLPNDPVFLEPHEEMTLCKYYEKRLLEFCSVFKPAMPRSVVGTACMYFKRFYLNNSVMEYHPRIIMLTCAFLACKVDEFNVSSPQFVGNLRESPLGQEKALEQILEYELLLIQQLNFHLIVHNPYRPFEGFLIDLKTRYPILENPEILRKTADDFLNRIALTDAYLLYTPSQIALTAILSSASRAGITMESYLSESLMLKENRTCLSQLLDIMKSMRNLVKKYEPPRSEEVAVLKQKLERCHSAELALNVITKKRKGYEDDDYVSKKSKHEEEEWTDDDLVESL
T19 sequence (P51948 whole entry partner): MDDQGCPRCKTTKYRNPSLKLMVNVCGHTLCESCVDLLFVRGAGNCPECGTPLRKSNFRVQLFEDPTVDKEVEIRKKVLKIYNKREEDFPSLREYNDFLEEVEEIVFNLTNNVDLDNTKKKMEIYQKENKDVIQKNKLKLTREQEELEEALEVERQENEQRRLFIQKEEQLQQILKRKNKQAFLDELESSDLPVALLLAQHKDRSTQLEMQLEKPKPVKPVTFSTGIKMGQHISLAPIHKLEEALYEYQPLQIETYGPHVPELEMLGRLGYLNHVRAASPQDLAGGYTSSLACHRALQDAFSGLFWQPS
T7 sequence (Q16288 32-839): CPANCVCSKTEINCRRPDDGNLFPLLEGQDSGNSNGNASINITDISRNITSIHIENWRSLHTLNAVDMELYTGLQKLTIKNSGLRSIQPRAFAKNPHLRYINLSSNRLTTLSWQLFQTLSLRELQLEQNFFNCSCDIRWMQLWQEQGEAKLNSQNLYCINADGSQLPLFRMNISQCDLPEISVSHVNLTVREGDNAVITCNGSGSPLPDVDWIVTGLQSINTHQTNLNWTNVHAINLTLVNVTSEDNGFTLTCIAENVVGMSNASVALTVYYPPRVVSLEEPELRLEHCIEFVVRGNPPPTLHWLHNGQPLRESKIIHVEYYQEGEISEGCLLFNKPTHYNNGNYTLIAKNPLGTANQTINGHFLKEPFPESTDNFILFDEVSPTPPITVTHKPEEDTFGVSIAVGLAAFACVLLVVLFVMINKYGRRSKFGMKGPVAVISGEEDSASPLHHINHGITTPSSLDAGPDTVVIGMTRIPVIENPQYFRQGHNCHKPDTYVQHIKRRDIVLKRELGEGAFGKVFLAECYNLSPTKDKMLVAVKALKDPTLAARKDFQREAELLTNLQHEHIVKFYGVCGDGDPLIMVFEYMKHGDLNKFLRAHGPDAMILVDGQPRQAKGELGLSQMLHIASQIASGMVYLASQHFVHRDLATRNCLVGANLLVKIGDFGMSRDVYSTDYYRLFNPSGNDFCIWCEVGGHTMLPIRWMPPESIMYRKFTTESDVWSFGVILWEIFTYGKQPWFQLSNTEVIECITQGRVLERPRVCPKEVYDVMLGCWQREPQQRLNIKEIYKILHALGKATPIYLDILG

Question: Which activity at 1 µM (FGFR1) does the source give for `C=CC(=O)N[C@@H]1CCCN(c2ncnc3[nH]ccc23)C1` [RB1] here?
Answer: 80%

Question: And the activity at 1 µM (FAK)?
Answer: 72%

Question: And the IC50 (CLK2; estimated)?
Answer: > 800 nM

Question: What about the activity at 1 µM (CLK2; [1]) of the same compound?
Answer: 18%

Question: And the activity at 1 µM (ROCK-II)?
Answer: 88%

Question: And the IC50 (PKG1α; estimated)?
Answer: > 800 nM

Question: And the activity at 1 µM (PKG1α; [1])?
Answer: 23%

Question: And the activity at 1 µM (CaMKK2)?
Answer: 101%

Question: And the activity at 1 µM (TrkC)?
Answer: 75%

Question: What about the activity at 1 µM (Src) of the same compound?
Answer: 102%

Question: What about the activity at 1 µM (CaMKI) of the same compound?
Answer: 96%

Question: And the activity at 1 µM (SAPK2a)?
Answer: 100%

Question: And the activity at 1 µM (CDK9)?
Answer: 101%

Question: What about the activity at 1 µM (PKA) of the same compound?
Answer: 85%

Question: What about the activity at 1 µM (TrkB) of the same compound?
Answer: 38%

Question: And the activity at 1 µM (SAPK4)?
Answer: 95%

Question: What about the activity at 1 µM (PAK4) of the same compound?
Answer: 81%

Question: What about the activity at 1 µM (GSK3α) of the same compound?
Answer: 82%

Question: What about the activity at 1 µM (ROCK-I) of the same compound?
Answer: 88%

Question: And the activity at 1 µM (Pim-1)?
Answer: 62%

Question: And the activity at 1 µM (CDK7)?
Answer: 95%

Question: What about the activity at 1 µM (PRK2) of the same compound?
Answer: 79%
